Results on three compounds are retold here after patent publication US4544747A, “Quinoline carboxylic acid derivatives” (Otsuka Pharmaceutical Company, Limited, priority 1979, dated 1985).

For one data set, the system named is rats. The data set can be described thus: Acute toxicity test, oral, rats. To be noted: rats (Wister strain, male).
For another data set, the system named is Erwinia carotovora. The data set can be described thus: Antimicrobial-activity test 2, agar dilution plate method, bacteria (A: soft rot of vegetable). Type of data set: cell-based. The settings on record: Pectobacterium carotovorum, 10^8 cells/ml, PDA medium, read-out: Minimum inhibitory concentration. An excerpt:
A: Soft rot of vegetable (Erwinia carotovora)

The subject of a further data set is Xanthomonas oryzae. Put plainly: microbe, parasite or virus in culture. It counts as cell-based. The settings on record: read-out: Minimum inhibitory concentration.
The subject of another data set is Xanthomonas pruni. Put plainly: Antimicrobial-activity test 2, agar dilution plate method, bacteria (C: peach bacterial spot). It counts as cell-based. The settings on record: Xanthomonas arboricola, 10^8 cells/ml, PDA medium, read-out: Minimum inhibitory concentration. From the text:
C: Peach bacterial spot (Xanthomonas pruni)
On the technique in general: In agar dilution, organisms are placed on agar that contains the substance at set levels.

The test system of a further data set is Pseudomonas solanacearum. Put plainly: microbe, parasite or virus in culture. The settings on record: Ralstonia solanacearum, read-out: Minimum inhibitory concentration. It counts as cell-based.
A further data set concerns Pseudomonas lachrymans. Put plainly: Antimicrobial-activity test 2, agar dilution plate method, bacteria (F: angular leaf spot of cucumber). It counts as cell-based. The settings on record: 10^8 cells/ml, PDA medium, read-out: Minimum inhibitory concentration. An excerpt:
F: Angular leaf spot of cucumber (Pseudomonas lachrymans)

In a further data set the test system is Pyrisularia oryzae. Put plainly: microbe, parasite or virus in culture. It counts as cell-based. The settings on record: Pyricularia oryzae, 48 h, read-out: Minimum inhibitory concentration.
For the next data set, the system named is Phytophthora melonis. The data set can be described thus: microbe, parasite or virus in culture. Type of data set: cell-based. The settings on record: 48 h, read-out: Minimum inhibitory concentration.
Another data set relates to Phytophthora capsici. Put plainly: Antimicrobial-activity test 2, mycelial disc on agar plate, fungi (J: leaf blight of cucumber). Type of data set: cell-based. The settings on record: 48 h, complete inhibition of mycelial growth, 2 days, PDA medium, read-out: Minimum inhibitory concentration. From the text:
J: Leaf blight of cucumber (Phytophthora capsici)

The test system of data set [1] is Colletotrichum lagenarium. Put plainly: Antimicrobial-activity test 2, mycelial disc on agar plate, fungi (K: anthracnose of cucumber). It counts as cell-based. To be noted: Colletotrichum orbiculare, 48 h, complete inhibition of mycelial growth, 2 days, PDA medium, read-out: Minimum inhibitory concentration. From the text: K: Anthracnose of cucumber (Colletotrichum lagenarium)

The subject of another data set is Sclerotinia sclerotiorum. The data set can be described thus: Antimicrobial-activity test 2, mycelial disc on agar plate, fungi (L: stem rot of eggplant). Type of data set: cell-based. The settings on record: 48 h, complete inhibition of mycelial growth, 2 days, PDA medium, read-out: Minimum inhibitory concentration. An excerpt: L: Stem rot of eggplant (Sclerotinia sclerotiorum)

The next data set deals with Mycosphaerella melonis. Put plainly: Antimicrobial-activity test 2, mycelial disc on agar plate, fungi (M: gummy stem blight of melon). Type of data set: cell-based. To be noted: 48 h, complete inhibition of mycelial growth, 2 days, PDA medium, read-out: Minimum inhibitory concentration. An excerpt: […] blight of melon (Mycosphaerella melonis)
The test system of another data set is Alternaria solani. The data set can be described thus: Antimicrobial-activity test 2, mycelial disc on agar plate, fungi (N: early blight of tomato). It counts as cell-based. The settings on record: 48 h, complete inhibition of mycelial growth, 2 days, PDA medium, read-out: Minimum inhibitory concentration. An excerpt:
N: Early blight of tomato (Alternaria solani)

The subject of another data set is Xanthomonas citri. Put plainly: Antimicrobial-activity test 2, agar dilution plate method, bacteria (D: citrus canker). The settings on record: read-out: Minimum inhibitory concentration.
Data set [2] deals with Erwinia carotovora (soft-rot causing bacterium). Put plainly: Antimicrobial-activity test 3, incidence of soft rot on inoculated Japanese radish disks. To be noted: 28° C.
The test system of a further data set is Helminthosporium oryzae. The data set can be described thus: Antimicrobial-activity test 2, mycelial disc on agar plate, fungi (H: Helminthosporium leaf spot). The settings on record: Bipolaris oryzae, 48 h, read-out: Minimum inhibitory concentration.
[3] abbreviates: 15.6 μg/ml, test specimen 1, 24 hours.
[4] abbreviates: 15.6 μg/ml, test specimen 2, 24 hours.
Where [5] appears, read: 15.6 μg/ml, test specimen 3, 24 hours.
Where [6] appears, read: 15.6 μg/ml, test specimen 4, 24 hours.
[7] abbreviates: 15.6 μg/ml, test specimen 5, 24 hours.
[8] abbreviates: 31.3 μg/ml, test specimen 1, 24 hours.
Where [9] appears, read: 31.3 μg/ml, test specimen 2, 24 hours.
Setting [10] is: 31.3 μg/ml, test specimen 3, 24 hours.
Where [11] appears, read: 31.3 μg/ml, test specimen 4, 24 hours.
The mark [12] stands for this setting: 31.3 μg/ml, test specimen 5, 24 hours.
The mark [13] stands for this setting: 62.5 μg/ml, test specimen 1, 24 hours.
Where [14] appears, read: 62.5 μg/ml, test specimen 2, 24 hours.
Where [15] appears, read: 62.5 μg/ml, test specimen 3, 24 hours.
Where [16] appears, read: 62.5 μg/ml, test specimen 4, 24 hours.
Where [17] appears, read: 62.5 μg/ml, test specimen 5, 24 hours.
[18] abbreviates: 125 μg/ml, test specimen 1, 24 hours.
[19] abbreviates: 125 μg/ml, test specimen 2, 24 hours.
[20] abbreviates: 125 μg/ml, test specimen 3, 24 hours.
Setting [21] is: 125 μg/ml, test specimen 4, 24 hours.
Setting [22] is: 125 μg/ml, test specimen 5, 24 hours.

Values after ≈ are worked out from the molar mass of the structure shown.

`CCn1cc(C(=O)O)c(=O)c2ccc(N3CCNCC3)c(C)c21` [Compound 1, 1-Ethyl-7-(1-piperazinyl)-8-methyl-4-oxo-1,4-dihydroquinoline-3-carboxylic acid]: in the data set with rats, the “estimated LD50” value was “not less than 500 mg/kg”.

`CCn1cc(C(=O)O)c(=O)c2ccc(Cl)c(C)c21` [Compound 2, 1-ethyl-7-chloro-8-methyl-4-oxo-1,4-dihydroquinoline-3-carboxylic acid]: the MIC in the data set with Erwinia carotovora came to 0.2 µg/mL (≈ 0.753 µM); in the data set on Xanthomonas oryzae it was 0.2 µg/mL (≈ 0.753 µM); in the data set with Xanthomonas pruni, 0.4 µg/mL (≈ 1.51 µM); in the data set with Pseudomonas solanacearum it was 0.1 µg/mL (≈ 0.376 µM); in the data set on Pseudomonas lachrymans, 100 µg/mL (≈ 376 µM); in the data set on Pyrisularia oryzae, 50 µg/mL (≈ 188 µM). The MIC in the data set with Phytophthora melonis was 12.5 µg/mL (≈ 47 µM); in the data set on Phytophthora capsici, 25 µg/mL (≈ 94.1 µM); in data set [1], 100 µg/mL (≈ 376 µM); in the data set with Sclerotinia sclerotiorum it was 100 µg/mL (≈ 376 µM); in the data set with Mycosphaerella melonis, 50 µg/mL (≈ 188 µM); in the data set on Alternaria solani it was 50 µg/mL (≈ 188 µM). Also, the values for the MIC in the data set on Xanthomonas citri and with Helminthosporium oryzae were 0.1 µg/mL (≈ 0.376 µM) and 50 µg/mL (≈ 188 µM), respectively. Also, the “estimated LD50” value in the data set on rats is “not less than 500 mg/kg”. Further, the Disease incidence index was 0 (0) in [2] (setting [3]); 1 (0< ≤1/3) in data set [2] (setting [4]); 1 (0< ≤1/3) in data set [2] (setting [5]); 1 (0< ≤1/3) in data set [2] (setting [6]); 1 (0< ≤1/3) in data set [2] (setting [7]); 0 (0) in [2] (setting [8]). The Disease incidence index was 0 (0) in data set [2] (setting [9]); 0 (0) in data set [2] (setting [10]); 1 (0< ≤1/3) in data set [2] (setting [11]); 1 (0< ≤1/3) in data set [2] (setting [12]); 0 (0) in [2] (setting [13]); 0 (0) in data set [2] (setting [14]). The Disease incidence index was 0 (0) in data set [2] (setting [15]); 0 (0) in data set [2] (setting [16]); 1 (0< ≤1/3) in data set [2] (setting [17]); 0 (0) in [2] (setting [18]); 0 (0) in data set [2] (setting [19]); 0 (0) in data set [2] (setting [20]). The results for the Disease incidence index in data set [2] (setting [21]) and in [2] (setting [22]) were 0 (0) and 1 (0< ≤1/3), respectively.

For the compound `[H]/N=C(/N)N[C@H]1[C@H](O)[C@@H](O)[C@H](O[C@@H]2O[C@@H](C)[C@](O)(C=O)[C@H]2O[C@@H]2O[C@@H](CO)[C@H](O)[C@@H](O)[C@@H]2NC)[C@@H](N/C(N)=N\[H])[C@@H]1O` [Streptomycin, reference compound], the Disease incidence index in [2] (setting [3]) was determined as 3; in data set [2] (setting [4]), 3; in data set [2] (setting [5]) it was 3; in [2] (setting [6]), 3; in data set [2] (setting [7]), 3; in data set [2] (setting [8]), 2. The Disease incidence index is on record as 2 in data set [2] (setting [9]); 3 in data set [2] (setting [10]); 3 in [2] (setting [11]); 3 in data set [2] (setting [12]); 1 (0< ≤1/3) in data set [2] (setting [13]); 1 (0< ≤1/3) in data set [2] (setting [14]). Moreover, the Disease incidence index is 2 in data set [2] (setting [15]); 2 in [2] (setting [16]); 2 in [2] (setting [17]); 1 (0< ≤1/3) in data set [2] (setting [18]); 1 (0< ≤1/3) in data set [2] (setting [19]); 1 (0< ≤1/3) in data set [2] (setting [20]). Moreover, the Disease incidence index in data set [2] (setting [21]) and in data set [2] (setting [22]) was 1 (0< ≤1/3) in each case.
